# In Sander's compilation of Henry's law constants (doi:10.1007/bf02268351):
# Experiment: Henry solubility constant Hcp at 298.15 K (mol/(m3 Pa))
# Settings: reference: Kolb et al. (1992)
row,SMILES,Henry solubility constant Hcp
1,ClC(Cl)=C(Cl)Cl [tetrachloroethene],0.00081
2,C1CCCCC1 [cyclohexane],5.4e-05
3,"Cc1ccccc1C [1,2-dimethylbenzene]",0.0014
4,CCOC(C)=O [ethyl ethanoate],0.044
5,CCCCCC [hexane],0.00024
6,Cc1ccccc1 [methylbenzene],0.0016
7,CC(C)O [2-propanol],0.79
8,CCCCOC(C)=O [butyl ethanoate],0.023
9,CC(=O)CC(C)C [4-methyl-2-pentanone],0.043
10,"CC(Cl)(Cl)Cl [1,1,1-trichloroethane]",0.00079
